Assay results: patent publication US12590070B2, “Adamantane derivatives as inhibitors of focal adhesion kinase” (SAMJIN PHARMACEUTICAL CO., LTD., priority 2019, dated 2026)

Key:
Pyk2 = biological target: T1, Pyk2 (Homo sapiens, UniProt Q14289); test: ADP-Glo Kinase Assay, Pyk2; assay type: biochemical; details: ADP-Glo Kinase Assay Kit
T1 construct: purchased Promega V4083
Method: (§1) Briefly, a kinase test was performed and quantified according to the manufacturer's instructions after treating the adamantane derivative compound of the present invention by using the ADP-Glo™ Kinase Assay Kit (FAK, Promega, V1971; Pyk2, Promega, V4083; InsR, Promega, V9401) containing each kinase of Promega.

FAK [1] = biological target: T2, FAK (Homo sapiens, UniProt Q05397); test: ADP-Glo Kinase Assay, FAK; assay type: biochemical; parameters: purchased Promega V1971; details: ADP-Glo Kinase Assay Kit
T2 sequence (Q05397 whole entry): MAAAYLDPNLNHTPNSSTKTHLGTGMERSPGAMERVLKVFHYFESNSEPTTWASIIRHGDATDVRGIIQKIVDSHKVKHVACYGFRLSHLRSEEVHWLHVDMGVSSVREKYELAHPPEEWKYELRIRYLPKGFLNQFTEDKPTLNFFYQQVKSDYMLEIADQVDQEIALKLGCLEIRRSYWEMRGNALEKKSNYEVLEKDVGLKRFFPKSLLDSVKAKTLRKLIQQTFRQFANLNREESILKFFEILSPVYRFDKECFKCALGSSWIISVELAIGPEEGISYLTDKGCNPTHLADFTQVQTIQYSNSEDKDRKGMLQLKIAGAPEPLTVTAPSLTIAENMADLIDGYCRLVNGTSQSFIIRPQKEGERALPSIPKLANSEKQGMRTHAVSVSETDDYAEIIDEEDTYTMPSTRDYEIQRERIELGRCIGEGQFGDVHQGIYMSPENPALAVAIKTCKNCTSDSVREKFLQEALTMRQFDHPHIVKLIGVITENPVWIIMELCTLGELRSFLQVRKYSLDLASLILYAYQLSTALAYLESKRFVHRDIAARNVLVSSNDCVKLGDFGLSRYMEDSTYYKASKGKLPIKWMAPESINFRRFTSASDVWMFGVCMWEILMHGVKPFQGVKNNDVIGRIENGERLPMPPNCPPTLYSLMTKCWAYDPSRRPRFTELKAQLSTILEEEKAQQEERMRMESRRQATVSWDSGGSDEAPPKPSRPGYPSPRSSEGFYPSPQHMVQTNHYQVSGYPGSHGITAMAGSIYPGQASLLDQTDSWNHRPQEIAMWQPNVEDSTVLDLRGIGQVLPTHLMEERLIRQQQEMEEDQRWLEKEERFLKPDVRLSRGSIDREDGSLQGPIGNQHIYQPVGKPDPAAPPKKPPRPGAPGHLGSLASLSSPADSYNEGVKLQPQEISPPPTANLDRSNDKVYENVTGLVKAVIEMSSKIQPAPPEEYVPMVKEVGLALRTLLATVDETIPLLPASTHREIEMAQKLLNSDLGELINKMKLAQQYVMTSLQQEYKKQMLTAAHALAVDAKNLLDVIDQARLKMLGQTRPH
Method: as §1

InsR = biological target: T3, InsR (Homo sapiens, UniProt P06213); test: ADP-Glo Kinase Assay, InsR; assay type: biochemical; details: ADP-Glo Kinase Assay Kit
T3 construct: purchased Promega V9401
T3 sequence (P06213 28-1382): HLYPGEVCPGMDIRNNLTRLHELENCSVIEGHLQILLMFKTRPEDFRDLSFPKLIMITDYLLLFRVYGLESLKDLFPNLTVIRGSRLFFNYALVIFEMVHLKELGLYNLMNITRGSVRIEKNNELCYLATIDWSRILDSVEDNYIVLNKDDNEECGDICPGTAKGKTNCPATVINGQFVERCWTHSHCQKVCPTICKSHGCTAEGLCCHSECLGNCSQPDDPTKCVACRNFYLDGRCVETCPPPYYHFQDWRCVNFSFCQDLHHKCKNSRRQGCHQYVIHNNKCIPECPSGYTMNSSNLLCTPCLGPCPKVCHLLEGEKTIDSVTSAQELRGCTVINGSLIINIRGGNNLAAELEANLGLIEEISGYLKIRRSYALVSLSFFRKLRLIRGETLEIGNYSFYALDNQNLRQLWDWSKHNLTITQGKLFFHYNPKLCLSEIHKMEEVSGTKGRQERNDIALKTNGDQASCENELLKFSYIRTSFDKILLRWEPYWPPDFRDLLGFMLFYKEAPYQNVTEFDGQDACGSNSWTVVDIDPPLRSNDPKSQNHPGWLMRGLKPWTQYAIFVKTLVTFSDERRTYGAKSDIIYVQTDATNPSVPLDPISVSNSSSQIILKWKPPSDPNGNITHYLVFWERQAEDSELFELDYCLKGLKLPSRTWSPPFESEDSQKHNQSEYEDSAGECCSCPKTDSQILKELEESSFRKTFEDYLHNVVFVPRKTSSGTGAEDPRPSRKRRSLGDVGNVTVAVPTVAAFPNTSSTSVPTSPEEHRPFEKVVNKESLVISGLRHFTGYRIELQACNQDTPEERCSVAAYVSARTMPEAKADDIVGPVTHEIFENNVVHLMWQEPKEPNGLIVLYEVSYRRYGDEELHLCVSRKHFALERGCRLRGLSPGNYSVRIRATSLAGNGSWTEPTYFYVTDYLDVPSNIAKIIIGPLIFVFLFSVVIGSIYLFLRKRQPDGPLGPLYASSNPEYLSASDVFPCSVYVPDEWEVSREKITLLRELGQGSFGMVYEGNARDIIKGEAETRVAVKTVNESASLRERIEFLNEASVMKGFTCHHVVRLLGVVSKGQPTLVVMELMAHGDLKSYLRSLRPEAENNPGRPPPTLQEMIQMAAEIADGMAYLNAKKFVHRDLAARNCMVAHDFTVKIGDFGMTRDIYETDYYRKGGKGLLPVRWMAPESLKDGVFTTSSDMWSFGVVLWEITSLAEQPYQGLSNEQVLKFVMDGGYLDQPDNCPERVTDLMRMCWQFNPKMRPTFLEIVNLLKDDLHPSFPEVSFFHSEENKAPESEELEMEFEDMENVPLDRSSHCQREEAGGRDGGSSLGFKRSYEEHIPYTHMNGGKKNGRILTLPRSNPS
Method: as §1

FAK [2] = biological target: T2, FAK; test: FAK [pY397] ELISA in MDA-MB-231 cells; assay type: cell-based; parameters: endogenous in cells; host or cells: MDA-MB-231; details: MDA-MB-231, treated for one hour, Table 2; read-out: FAK inhibitory activity (IC50)
Method: Briefly, an enzyme-linked immunosorbent assay test was performed according to the manufacturer's instructions by using the FAK (Phospho) [pY397] Human ELISA Kit (Thermo Fisher Scientific, KH00441) after dispensing 1×10^6 MDA-MB-231 cells into each well of a 6-well plate, inducing cell stabilization for 24 hours, and treating each compound at different concentrations (o, 1, 5, 10, 50, 100, 500, 1000 nM) for one hour.

[3] = preclinical study; cited from earlier work

T1 sequence (Q14289 whole entry): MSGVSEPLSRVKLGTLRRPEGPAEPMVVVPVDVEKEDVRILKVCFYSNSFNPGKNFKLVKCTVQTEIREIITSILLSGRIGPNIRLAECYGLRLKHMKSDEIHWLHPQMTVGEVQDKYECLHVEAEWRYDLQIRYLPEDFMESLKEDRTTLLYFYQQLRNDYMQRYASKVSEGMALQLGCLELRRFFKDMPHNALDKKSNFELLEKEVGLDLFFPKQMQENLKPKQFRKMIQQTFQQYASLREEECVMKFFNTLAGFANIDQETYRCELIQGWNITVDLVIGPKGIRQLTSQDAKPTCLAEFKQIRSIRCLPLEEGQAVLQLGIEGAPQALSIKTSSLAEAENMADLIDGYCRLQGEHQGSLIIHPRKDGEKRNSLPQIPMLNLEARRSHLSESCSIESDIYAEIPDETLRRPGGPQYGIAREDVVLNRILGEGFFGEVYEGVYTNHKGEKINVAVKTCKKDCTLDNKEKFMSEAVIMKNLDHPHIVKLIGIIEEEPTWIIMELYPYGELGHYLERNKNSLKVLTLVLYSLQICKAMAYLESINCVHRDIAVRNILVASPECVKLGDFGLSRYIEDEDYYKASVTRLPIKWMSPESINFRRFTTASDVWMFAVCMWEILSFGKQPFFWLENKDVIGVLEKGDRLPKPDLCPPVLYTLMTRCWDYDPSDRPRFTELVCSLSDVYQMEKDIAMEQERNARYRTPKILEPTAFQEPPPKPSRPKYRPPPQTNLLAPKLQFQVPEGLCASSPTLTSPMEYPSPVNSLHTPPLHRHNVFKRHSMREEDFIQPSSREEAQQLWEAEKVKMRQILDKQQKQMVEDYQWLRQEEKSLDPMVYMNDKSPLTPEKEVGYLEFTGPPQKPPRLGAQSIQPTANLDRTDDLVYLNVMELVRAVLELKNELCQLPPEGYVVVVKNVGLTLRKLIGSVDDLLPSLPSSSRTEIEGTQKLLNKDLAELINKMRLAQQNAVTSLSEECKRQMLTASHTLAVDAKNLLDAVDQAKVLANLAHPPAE

| SMILES | IC50 (Pyk2) [nM] | IC50 (FAK [1]) [nM] | IC50 (InsR) [nM] | IC50 (FAK [2]) [nM] | side effects [3] |
| --- | --- | --- | --- | --- | --- |
| CNC(=O)c1cccc(C)c1Nc1nc(Nc2ccc(N[C@H]3C4CC5CC3C[C@](O)(C5)C4)cc2OC)ncc1C(F)(F)F [Compound 1, 2-((2-((4-(((trans)-5-hydroxyadamantan-2-yl)amino)-2-methoxyphenyl)amino)-5-(trifluoromethyl)pyrimidin-4-yl)amino)-N,3-dimethylbenzamide] | 124 | 82.9 | > 10000 | 83 |  |
| CNC(=O)c1cccc(C)c1Nc1nc(Nc2ccc(N3CCN(C4C5CC6CC(C5)CC4C6)CC3)cc2OC)ncc1C(F)(F)F (centres unmarked) [Compound 3, 2-((2-((4-(4-(adamantan-2-yl)piperazin-1-yl)-2-methoxyphenyl)amino)-5-(trifluoromethyl)pyrimidin-4-yl)amino)-N,3-dimethylbenzamide] | 256 | 154 | > 10000 | 92 |  |
| CNC(=O)c1cccc(C)c1Nc1nc(Nc2ccc(NC3CCN(C4C5CC6CC(C5)CC4C6)CC3)cc2OC)ncc1C(F)(F)F (centres unmarked) [Compound 6, 2-((2-((4-((1-(adamantan-2-yl)piperidin-4-yl)amino)-2-methoxyphenyl)amino)-5-(trifluoromethyl)pyrimidin-4-yl)amino)-N,3-dimethylbenzamide] | 157 | 96.5 | > 10000 | 118 |  |
| CNC(=O)c1ccccc1Nc1nc(Nc2ccc(N3CCOCC3)cc2OC)ncc1Cl [TAE226] |  |  |  |  | serious side effects such as unexpected inhibition of glucose metabolism, a decrease in blood concentration |

Further lines, with some results ahead:

| IC50 (Pyk2) [nM] | IC50 (FAK [1]) [nM] | IC50 (InsR) [nM] | IC50 (FAK [2]) [nM] | SMILES | side effects [3] |
| --- | --- | --- | --- | --- | --- |
| 108 | 46.9 | 6150 | 38 | CNC(=O)c1cccc(C)c1Nc1nc(Nc2ccc(NC3CCN([C@H]4C5CC6CC4C[C@](O)(C6)C5)CC3)cc2OC)ncc1C(F)(F)F [Compound 7, 2-((2-((4-((1-((trans)-5-hydroxyadamantan-2-yl)piperidin-4-yl)amino)-2-methoxyphenyl)amino)-5-(trifluoromethyl)pyrimidin-4-yl)amino)-N,3-dimethylbenzamide] |  |
|  | 96.7 | > 10000 | 382 | CNC(=O)c1cccc(C)c1Nc1nc(Nc2ccc(OC34CC5CC(C3)C(=O)C(C5)C4)cc2OC)ncc1C(F)(F)F [Compound 10, 2-((2-((2-methoxy-4-((4-oxoadamantan-1-yl)oxy)phenyl)amino)-5-(trifluoromethyl)pyrimidin-4-yl)amino)-N,3-dimethylbenzamide] |  |
| 231 | 65.1 | > 10000 | 118 | CNC(=O)c1cccc(C)c1Nc1nc(Nc2ccc(OC34CC5CC(C3)C(O)C(C5)C4)cc2OC)ncc1C(F)(F)F (centres unmarked) [Compound 11, 2-((2-((4-((4-hydroxyadamantan-1-yl)oxy)-2-methoxyphenyl)amino)-5-(trifluoromethyl)pyrimidin-4-yl)amino)-N,3-dimethylbenzamide] |  |
| 90.6 | 45.5 | > 10000 | 27 | CNC(=O)c1cccc(C)c1Nc1nc(Nc2ccc(NC(=O)C34CC5CC(C3)C(N3CCOCC3)C(C5)C4)cc2OC)ncc1C(F)(F)F (centres unmarked) [Compound 25, N-(3-methoxy-4-((4-((2-methyl-6-(methylcarbamoyl)phenyl)amino)-5-(trifluoromethyl)pyrimidin-2-yl)amino)phenyl)-4-morpholinoadamantan-1-carboxamide] |  |
| 81.4 | 39.5 | > 10000 | 55 | CNC(=O)c1cccc(C)c1Nc1nc(Nc2ccc(NC(=O)[C@]34CC5CC(C3)[C@@H](N3CC[C@H](NC(C)=O)C3)C(C5)C4)cc2OC)ncc1C(F)(F)F [Compound 27, (trans)-4-((S)-3-acetamidopyrrolidin-1-yl)-N-(3-methoxy-4-((4-((2-methyl-6-(methylcarbamoyl)phenyl)amino)-5-(trifluoromethyl)pyrimidin-2-yl)amino)phenyl) adamantan-1-carboxamide] |  |
